From article PMC7997032, “Organic synthesis and anti-influenza A virus activity of cyclobakuchiols A, B, C, and D” (PLoS ONE, 2021)
“And” between values parts separate entries of the source, which are not always exact repeats. Equal values may be shown once.

How the values were obtained:
[1] = tested on: A/WSN/33 virus; assay: Influenza A viral growth assay (viral titer of culture media); assay type: cell-based, influenza A H1N1 virus; conditions: A/WSN/33 (WSN), 12.5uM, average of #1-3 exp (n=9)
[2] = tested on: NAD(P)H quinone oxidoreductase 1 (Nqo1); assay: RT-qPCR of Nqo1 mRNA in MDCK cells with or without A/PR/8/34 virus; assay type: cell-based, canine; conditions: 12.5uM, MDCK, relative to virus - DMSO; for NQO1 Canis lupus mRNA, ave: ave of #1-3 exp; for NQO1 Canis lupus mRNA, individual replicates: replicates 1-3 of #1, #2, #3 exp, listed as Cyclobakuchiol D
[3] = tested on: canine interferon-β (Ifn-β); assay: RT-qPCR of Ifn-β mRNA in MDCK cells with or without A/PR/8/34 virus; assay type: cell-based; conditions: 12.5uM, relative to virus - DMSO; for MDCK IFN-b mRNA, ave: ave of #1-3 exp; for MDCK IFN-b mRNA, individual replicates: replicates 1-3 of #1, #2, #3 exp, listed as Cyclobakuchiol D
[4] = tested on: A/WSN/33 virus; assay: Immunofluorescence staining of viral NP in influenza A virus-infected MDCK cells; conditions: WSN
Protocol: MDCK cells were seeded on a 96-well plate at 1 × 10^4 cells/well. […] Each mixture was added to the cells at 37°C in the presence of 5% CO2. […] After influenza A viral infection for 24 h, the cells were fixed with 4% paraformaldehyde in phosphate-buffered saline (PBS) for 30 min at 4°C and subsequently permeabilized by the addition of 0.3% Triton X-100 for 20 min at 25°C. A mouse primary antibody was used to detect the NP of A/PR/8/34 or A/WSN/33 viruses (FluA-NP 4F1; SouthernBiotech, AL, USA). Alexa Fluor488-conjugated goat anti-mouse IgG (H + L) antibody (Thermo Fisher Scientific) was used as the secondary antibody. Cell nuclei were then stained using diamidino-2-phenylindole (DAPI) (Thermo Fisher Scientific). Wells were photographed using a fluorescence microscope (BIOREVO BZ-X700; Keyence, Osaka, Japan). The proportion of influenza A NP-positive cells per DAPI-positive cells was calculated based on measurements recorded using BZ-X Analyzer software (Keyence).

[5] = tested on: Nrf2; assay: Nrf2 reporter assay (dual luciferase system) in MDCK cells; assay type: cell-based, canine
Protocol: An Nrf2 reporter assay based on the dual luciferase system was performed as previously described. The plasmid pNQO1-ARE (antioxidant response element)-Fluc, provided by Yamamoto M., expressed a Firefly luciferase gene driven by Nrf2 activation, while the plasmid pRL-TK-Rluc vector (Promega, CA, USA) expressed a Renilla luciferase gene driven by the herpes simplex viral thymidine kinase promoter as an internal control. MDCK cells were seeded in a 24-well plate at 1 × 10^5 cells/well and transfected with pNQO1-ARE-luc (0.25 μg) and pRL-TK-Rluc (0.25 μg). At 24 h post-transfection, the cells were treated with 12.5 μM cyclobakuchiols A–D in the infection medium at 37°C under 5% CO2. DMSO (0.125%) and 12.5 μM 1 were used as negative and positive controls, respectively. Total RNA was extracted from the MDCK cell lysates after 24 h of incubation. The levels of Firefly and Renilla luciferase mRNAs were analyzed by RT-qPCR and normalized to that of β-actin mRNA.

[6] = tested on: A/PR/8/34 virus; assay: RT-qPCR of viral mRNAs (NP, NS1, PA, PB1, PB2, M2) in infected MDCK cells; assay type: cell-based, influenza A H1N1 virus
[7] = tested on: A/PR/8/34 virus; assay type: cell-based; conditions: 12.5 μM, 24h WB
[8] = tested on: A/PR/8/34 virus; assay: Immunofluorescence staining of viral NP in influenza A virus-infected MDCK cells; conditions: for NP/DAPI (%) ave: average of 9 wells
[9] = tested on: A/PR/8/34 virus; assay: Influenza A viral growth assay (viral titer of culture media); assay type: cell-based, influenza A H1N1 virus; parameters: viral titer of culture media, individual replicate / viral titer of culture media, ave: unit not given here; conditions: A/PR/8/34 (PR8), 12.5uM, average of #1-3 exp (n=9)
[10] = MDCK cells, PR8 virus, relative to DMSO (about 1), ave of #1-3 exp (9 values)
[11] = MDCK cells, PR8 virus, relative to DMSO, replicates 1-3 of #1, #2, #3 exp, listed as Cyclobakuchiol D
[12] = single experiment, listed as cyclo D

C=C[C@]1(C)CCC(C(C)(C)O)C(c2ccc(O)cc2)C1 (stereo in doubt) [cyclobakuchiol D]
viral titer of culture media, ave ([1]; 12h): 10344.4
viral titer of culture media, ave ([1]; 24h): 25855556
viral titer of culture media, ave ([1]; 48h): 191111111
viral titer of culture media, ave ([1]; 72h): 140200000
NQO1 Canis lupus mRNA, ave ([2]; virus + (PR8)): 1.2349
NQO1 Canis lupus mRNA, individual replicates ([2]; virus + (PR8)): 1.289 and 1.376 and 1.34 and 1.5629 and 0.8611 and 0.8923 and 0.9522 and 1.447 and 1.3929
NQO1 Canis lupus mRNA, ave ([2]; virus -): 1.178
NQO1 Canis lupus mRNA, individual replicates ([2]; virus -): 1.099 and 1.305 and 1.308 and 1.291 and 1.087 and 1.132 and 1.031 and 1.075 and 1.276
MDCK IFN-b mRNA, ave ([3]; virus +): 17.4654
MDCK IFN-b mRNA, individual replicates ([3]; virus +): 2.418 and 33.9435 and 15.7832 and 32.7435 and 6.882 and 51.6835 and 8.73 and 2.955 and 2.05
MDCK IFN-b mRNA, ave ([3]; virus -): 2.784
MDCK IFN-b mRNA, individual replicates ([3]; virus -): 0.8154 and 7.71 and 7.894 and 3.201 and 1.087 and 1.374 and 1.346 and 0.9591 and 0.6654
NP/DAPI (%) ave ([4]; 3.13uM, ave of 9 values (3 exp)): 30.4806%
NP/DAPI (%) ave ([4]; 6.25uM, ave of 9 values (3 exp)): 29.9222%
NP/DAPI (%) ave ([4]; 12.5uM, ave of 9 values (3 exp)): 34.4723%
NP/DAPI (%) ave ([4]; 25uM, ave of 9 values (3 exp)): 38.5623%
NP/DAPI (%) ave ([4]; ave summary, 3.13%): 30.4806%
NP/DAPI (%) ave ([4]; ave summary, 6.25%): 29.9222%
NP/DAPI (%) ave ([4]; ave summary, 12.50%): 34.4723%
NP/DAPI (%) ave ([4]; ave summary, 25%): 38.5623%
Nrf2 activation (reporter assay) in contrast to DMSO ([5]; 12.5 μM, 24 h, MDCK cells): did not induce Nrf2 activation
pNQO1-ARE-Luc NRF2 reporter assay, ave ([5]; 12.5uM, relative to DMSO trans+, ave of #1-3 exp): 1.2008
pNQO1-ARE-Luc NRF2 reporter assay, individual replicates ([5]; 12.5uM, relative to DMSO trans+, two values each of #1, #2, #3 exp, listed as Cyclobakuchiol D): 1.181 and 1.006 and 1.453 and 1.158 and 1.274 and 1.134
PR8 NP gene expression qPCR, ave ([6]; MDCK PR8, NP mRNA, relative (DMSO about 1), average of #1-3 exp (n=9)): 0.07153
PR8 NP gene expression qPCR, individual replicate ([6]; MDCK PR8, NP mRNA, relative (DMSO about 1), replicates of #1-3 exp, listed as Cyclobakuchiol D): 0.03886 and 0.05994 and 0.05606 and 0.05458 and 0.125 and 0.1151 and 0.1425 and 0.0275 and 0.02409
PR8 NS1 gene expression qPCR, ave ([6]; MDCK PR8, NS1 mRNA, relative (DMSO about 1), average of #1-3 exp (n=9)): 0.04518
PR8 NS1 gene expression qPCR, individual replicate ([6]; MDCK PR8, NS1 mRNA, relative (DMSO about 1), replicates of #1-3 exp, listed as Cyclobakuchiol D): 0.02832 and 0.04013 and 0.04518 and 0.04355 and 0.06568 and 0.06468 and 0.07589 and 0.02316 and 0.02
PR8 PA gene expression qPCR, ave ([6]; MDCK PR8, PA mRNA, relative (DMSO about 1), average of #1-3 exp (n=9)): 0.04749
PR8 PA gene expression qPCR, individual replicate ([6]; MDCK PR8, PA mRNA, relative (DMSO about 1), replicates of #1-3 exp, listed as Cyclobakuchiol D): 0.03007 and 0.03859 and 0.03028 and 0.03293 and 0.08115 and 0.07941 and 0.08873 and 0.02395 and 0.02226
PR8 M2 gene expression qPCR, ave [6, 10]: 0.04919
PR8 PB1 gene expression qPCR, ave [6, 10]: 0.04173
PR8 PB2 gene expression qPCR, ave [6, 10]: 0.05311
PR8 M2 gene expression qPCR, individual replicates [6, 11]: 0.03101 and 0.05567 and 0.03306 and 0.04539 and 0.07613 and 0.07839 and 0.08038 and 0.02111 and 0.02153
PR8 PB1 gene expression qPCR, individual replicates [6, 11]: 0.03148 and 0.02292 and 0.01741 and 0.02275 and 0.0784 and 0.07991 and 0.07514 and 0.02623 and 0.02132
PR8 PB2 gene expression qPCR, individual replicates [6, 11]: 0.03118 and 0.04821 and 0.03936 and 0.04228 and 0.08338 and 0.07806 and 0.1008 and 0.0302 and 0.02454
NP/b-actin ave ([7]; average of 3 experiments): 0.8053
NS1/b-actin ave ([7]; average of 3 experiments): 0.5049
NP mean (western blot signal intensity, ImageJ) [7, 12]: 94.385 and 99.104 and 119.4
NP/b-actin [7, 12]: 0.9145 and 0.7726 and 0.7289
NS1/b-actin [7, 12]: 0.4761 and 0.5377 and 0.5009
NS1 mean (western blot signal intensity, ImageJ) [7, 12]: 65.696 and 68.111 and 62.157
NP/DAPI (%) ave ([8]; A/PR/8/34, 3.13 uM): 8.962%
NP (NP-positive cell count) ([8]; A/PR/8/34, 3.13 uM, single well, listed as Cyclobaku. D): 26 and 38 and 24 and 36 and 32 and 28 and 35 and 30
NP/DAPI (%) ave ([8]; A/PR/8/34, 6.25 uM): 5.506%
NP/DAPI (%) ave ([8]; A/PR/8/34, 12.5 uM): 1.974%
NP/DAPI (%) ave ([8]; A/PR/8/34, 25 uM): 1.609%
IC50 ([8]; Influenza A virus, PR/8, MDCK, read-out: half maximal (50%) inhibitory concentration (IC50)): 8.8 ± 2.4 µM
viral titer of culture media, ave ([9]; 12h): 23333.3
viral titer of culture media, ave ([9]; 24h): 46666.7
viral titer of culture media, ave ([9]; 48h): 42222.2
viral titer of culture media, ave ([9]; 72h): 51111.1
